Key:
[1] = target: KRAS G12D (Homo sapiens, UniProt P01116, G12D); assay: KRAS G12D Probe Displacement Assay (TR-FRET, GDP-loaded); format: binding; settings: KRAS G12D, read-out: KRAS^G12D Probe Displacement Assay IC50
Excerpt: (§1) The synthetic routes of probe 1 and 2, which have been disclosed in PCT/CN2022/070676, are hereby incorporated herein.

[2] = target: WT KRAS (Homo sapiens, UniProt P01116); assay: KRAS WT Probe Displacement Assay (TR-FRET, GDP-loaded); format: binding; settings: KRAS WT, read-out: KRAS^WT Probe Displacement Assay IC50
Excerpt: as §1

KRAS G12D, sequence (P01116 1-188 isoform P01116-2 G12D): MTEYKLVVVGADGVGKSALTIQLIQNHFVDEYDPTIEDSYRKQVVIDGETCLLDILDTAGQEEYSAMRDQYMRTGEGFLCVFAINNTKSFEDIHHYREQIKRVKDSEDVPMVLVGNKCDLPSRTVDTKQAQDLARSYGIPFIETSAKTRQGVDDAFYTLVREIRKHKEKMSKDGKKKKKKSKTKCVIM
WT KRAS, sequence (P01116 1-188 isoform P01116-2): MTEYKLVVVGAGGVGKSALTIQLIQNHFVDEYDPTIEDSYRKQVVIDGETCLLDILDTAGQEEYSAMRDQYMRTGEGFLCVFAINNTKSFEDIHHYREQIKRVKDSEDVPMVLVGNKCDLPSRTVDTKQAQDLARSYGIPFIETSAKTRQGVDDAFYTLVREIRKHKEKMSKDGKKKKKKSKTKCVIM

SMILES	IC50 [1]	IC50 [2]
Cc1cc(N)cc(-c2nc3c4c(nc(O[C@@H](C)[C@@H]5CCCN5C5CCOCC5)nc4c2F)N2C[C@H]4CC[C@H](N4)[C@H]2CCO3)c1C(F)(F)F [Example 226, 3-((6aR,7S,10R)-1-fluoro-13-((S)-1-((S)-1-(tetrahydro-2H-pyran-4-yl)pyrrolidin-2-yl)ethoxy)-5,6,6a,7,8,9,10,11-octahydro-4-oxa-3,11a,12,14,15-pentaaza-7,10-methanocyclohepta[4,5]cycloocta[1,2,3-de]naphthalen-2-yl)-5-methyl-4-(trifluoromethyl)aniline]	< 0.3 nM	3 to 1000 nM
Cc1cc(N)cc(-c2nc3c4c(nc(O[C@@H](C)[C@@H]5CCCN5C5COC5)nc4c2F)N2C[C@H]4CC[C@H](N4)[C@H]2CCO3)c1C(F)(F)F [Example 227, 3-((6aR,7S,10R)-1-fluoro-13-((S)-1-((S)-1-(oxetan-3-yl)pyrrolidin-2-yl)ethoxy)-5,6,6a,7,8,9,10,11-octahydro-4-oxa-3,11a,12,14,15-pentaaza-7,10-methanocyclohepta[4,5]cycloocta[1,2,3-de]naphthalen-2-yl)-5-methyl-4-(trifluoromethyl)aniline]	< 0.3 nM	3 to 1000 nM
Cc1cc(N)cc(-c2nc3c4c(nc(O[C@@H](C)[C@@H]5CCCN5CC5CC5)nc4c2F)N2C[C@H]4CC[C@H](N4)[C@H]2CCO3)c1C(F)(F)F [Example 230, 3-((6aR,7S,10R)-13-((S)-1-((S)-1-(cyclopropylmethyl)pyrrolidin-2-yl)ethoxy)-1-fluoro-5,6,6a,7,8,9,10,11-octahydro-4-oxa-3,11a,12,14,15-pentaaza-7,10-methanocyclohepta[4,5]cycloocta[1,2,3-de]naphthalen-2-yl)-5-methyl-4-(trifluoromethyl)aniline]	< 0.3 nM	3 to 1000 nM
C=CCN1CCC[C@H]1[C@H](C)Oc1nc2c3c(nc(-c4cc(N)cc(C)c4C(F)(F)F)c(F)c3n1)OCC[C@@H]1[C@@H]3CC[C@H](CN21)N3 [Example 231, 3-((6aR,7S,10R)-13-((S)-1-((S)-1-allylpyrrolidin-2-yl)ethoxy)-1-fluoro-5,6,6a,7,8,9,10,11-octahydro-4-oxa-3,11a,12,14,15-pentaaza-7,10-methanocyclohepta[4,5]cycloocta[1,2,3-de]naphthalen-2-yl)-5-methyl-4-(trifluoromethyl)aniline]	< 0.3 nM	3 to 1000 nM
Cc1cc(N)cc(-c2nc3c4c(nc(O[C@@H](C)[C@@H]5CCCN5CCF)nc4c2F)N2C[C@H]4CC[C@H](N4)[C@H]2CCO3)c1C(F)(F)F [Example 250, 3-((6aR,7S,10R)-1-fluoro-13-((S)-1-((S)-1-(2-fluoroethyl)pyrrolidin-2-yl)ethoxy)-5,6,6a,7,8,9,10,11-octahydro-4-oxa-3,11a,12,14,15-pentaaza-7,10-methanocyclohepta[4,5]cycloocta[1,2,3-de]naphthalen-2-yl)-5-methyl-4-(trifluoromethyl)aniline]	< 0.3 nM	3 to 1000 nM

From patent publication US20260347373A1, “HETEROCYCLIC COMPOUNDS, COMPOSITIONS THEREOF, AND METHODS OF TREATMENT THEREWITH” (BeOne Medicines I GmbH, priority 2023, published 2026)
